Experimental data published in patent US11761045B2, “Splice variants associated with neomorphic SF3B1 mutants” (Eisai R&D Management Co., Ltd., priority 2015, dated 2023).

Assays:
SF3B1^WT = SF3B1^WT (Homo sapiens, UniProt O75533+Q7RTV0); test: Competitive binding assay (SPA, 3H-probe molecule) with Flag-tag SF3B1 from 293F cells; set-up: expressed in transfected cells; host or cells: 293F cells (Life Technologies), transient transfection with pFLAG-CMV-2-SF3B1; settings: one nM 3H-probe; Flag-tag SF3B1^WT from transfected 293F cells; read-out: IC50, competitive inhibition of binding of the 3H-probe molecule
Chain of SF3B1^WT (Q15393 whole entry): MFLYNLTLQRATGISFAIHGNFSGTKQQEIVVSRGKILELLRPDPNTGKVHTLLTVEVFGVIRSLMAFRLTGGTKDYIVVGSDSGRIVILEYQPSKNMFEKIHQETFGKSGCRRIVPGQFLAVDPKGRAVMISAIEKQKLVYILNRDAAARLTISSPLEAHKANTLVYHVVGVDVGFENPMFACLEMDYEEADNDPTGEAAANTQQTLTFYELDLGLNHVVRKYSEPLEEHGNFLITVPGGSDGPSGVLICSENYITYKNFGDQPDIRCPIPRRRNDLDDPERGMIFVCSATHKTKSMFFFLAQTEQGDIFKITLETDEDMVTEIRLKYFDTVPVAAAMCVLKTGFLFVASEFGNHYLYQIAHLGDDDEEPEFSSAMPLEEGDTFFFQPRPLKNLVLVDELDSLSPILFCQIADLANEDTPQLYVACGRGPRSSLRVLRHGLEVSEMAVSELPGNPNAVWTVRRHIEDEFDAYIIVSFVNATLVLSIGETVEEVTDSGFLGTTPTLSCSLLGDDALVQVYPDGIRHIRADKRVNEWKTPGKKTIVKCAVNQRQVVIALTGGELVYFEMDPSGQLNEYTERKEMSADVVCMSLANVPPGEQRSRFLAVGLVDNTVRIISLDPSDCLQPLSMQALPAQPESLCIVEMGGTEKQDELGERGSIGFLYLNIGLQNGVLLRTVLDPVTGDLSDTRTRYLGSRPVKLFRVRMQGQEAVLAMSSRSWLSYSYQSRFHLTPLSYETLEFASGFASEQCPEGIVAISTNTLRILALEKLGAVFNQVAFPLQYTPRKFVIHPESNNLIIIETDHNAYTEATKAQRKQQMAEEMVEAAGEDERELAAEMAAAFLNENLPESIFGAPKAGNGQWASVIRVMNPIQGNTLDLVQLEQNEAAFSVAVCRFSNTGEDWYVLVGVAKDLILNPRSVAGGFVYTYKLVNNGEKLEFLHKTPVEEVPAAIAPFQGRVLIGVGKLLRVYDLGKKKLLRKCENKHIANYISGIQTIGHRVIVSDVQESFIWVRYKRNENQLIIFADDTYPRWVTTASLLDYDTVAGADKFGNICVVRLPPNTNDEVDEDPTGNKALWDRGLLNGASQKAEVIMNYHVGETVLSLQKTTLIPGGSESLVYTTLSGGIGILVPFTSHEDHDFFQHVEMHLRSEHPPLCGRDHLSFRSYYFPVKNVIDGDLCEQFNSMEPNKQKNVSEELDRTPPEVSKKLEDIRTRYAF
Chain of SF3B1^WT (Q9BWJ5 whole entry, further chain): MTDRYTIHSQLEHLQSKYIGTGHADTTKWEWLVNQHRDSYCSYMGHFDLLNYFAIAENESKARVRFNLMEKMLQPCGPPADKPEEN
Chain of SF3B1^WT (Q7RTV0 whole entry): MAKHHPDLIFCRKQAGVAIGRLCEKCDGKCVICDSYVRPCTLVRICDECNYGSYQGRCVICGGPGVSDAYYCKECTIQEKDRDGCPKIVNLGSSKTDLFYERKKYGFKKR
Chain of SF3B1^WT (O75533 whole entry): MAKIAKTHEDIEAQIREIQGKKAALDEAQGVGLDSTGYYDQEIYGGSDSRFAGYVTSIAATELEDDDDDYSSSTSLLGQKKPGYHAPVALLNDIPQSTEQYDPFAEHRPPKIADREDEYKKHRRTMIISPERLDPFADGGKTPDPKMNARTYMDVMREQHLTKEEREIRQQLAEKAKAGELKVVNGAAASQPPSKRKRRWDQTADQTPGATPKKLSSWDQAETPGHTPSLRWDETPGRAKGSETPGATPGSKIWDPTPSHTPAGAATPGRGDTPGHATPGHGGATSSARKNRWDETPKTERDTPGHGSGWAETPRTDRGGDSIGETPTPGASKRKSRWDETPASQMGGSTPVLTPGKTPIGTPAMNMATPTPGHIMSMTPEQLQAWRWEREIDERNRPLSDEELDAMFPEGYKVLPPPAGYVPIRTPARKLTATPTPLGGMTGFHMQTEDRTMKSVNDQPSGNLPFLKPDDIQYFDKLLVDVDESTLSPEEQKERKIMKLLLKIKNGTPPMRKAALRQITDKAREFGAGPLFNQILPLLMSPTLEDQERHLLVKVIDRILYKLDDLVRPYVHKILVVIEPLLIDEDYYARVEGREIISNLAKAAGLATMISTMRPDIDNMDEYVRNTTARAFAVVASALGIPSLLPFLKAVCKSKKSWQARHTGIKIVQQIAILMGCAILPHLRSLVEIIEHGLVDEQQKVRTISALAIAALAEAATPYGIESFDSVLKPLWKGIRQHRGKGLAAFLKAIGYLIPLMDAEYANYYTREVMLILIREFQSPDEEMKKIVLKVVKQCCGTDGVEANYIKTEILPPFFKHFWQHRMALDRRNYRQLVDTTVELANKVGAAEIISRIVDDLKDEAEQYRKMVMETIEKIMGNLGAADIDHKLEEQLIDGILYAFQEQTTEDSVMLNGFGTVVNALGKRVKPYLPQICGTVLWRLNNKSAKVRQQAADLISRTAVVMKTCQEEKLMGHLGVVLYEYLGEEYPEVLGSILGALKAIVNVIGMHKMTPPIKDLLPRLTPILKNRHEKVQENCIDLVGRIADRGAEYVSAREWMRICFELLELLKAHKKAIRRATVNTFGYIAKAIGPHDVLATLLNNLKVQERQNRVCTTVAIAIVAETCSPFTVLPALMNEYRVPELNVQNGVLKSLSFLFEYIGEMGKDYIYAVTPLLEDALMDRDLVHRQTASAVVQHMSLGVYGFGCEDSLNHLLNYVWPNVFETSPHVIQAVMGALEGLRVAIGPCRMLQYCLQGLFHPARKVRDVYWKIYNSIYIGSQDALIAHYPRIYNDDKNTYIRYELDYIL
Description: (§1) The ability of E7107 to bind both SF3B1^WT and SF3B1^K700E proteins was evaluated in a competitive binding assay using Flag-tag SF3B1 proteins immunoprecipitated with anti-Flag antibody from transiently transfected 293F cells. Batch immobilization of antibody to beads was prepared by incubating 80 μg of anti-SF3B1 antibody (MBL International) and 24 mg anti-mouse PVT SPA scintillation beads (PerkinElmer) for 30 minutes. After centrifugation, the antibody-bead mixture was resuspended in PBS supplemented with PhosSTOP phosphatase inhibitor cocktail (Roche) and complete ULTRA protease inhibitor cocktail (Roche). Nuclear extracts were prepared by diluting 40 mg into a total volume of 16 mL PBS with phosphatase and protease inhibitors, and the mixture was centrifuged. The supernatant was transferred into a clean tube, and the antibody-bead mixture was added and incubated for two hours. The beads were collected by centrifuging, washed twice with PBS+0.1% Triton X-100, and resuspended with 4.8 mL of PBS. 100 μL binding reactions were prepared using slurry and varying concentrations of E7107. […] The mixture was incubated at room temperature for 15 minutes, and luminescence signals were read using a MicroBeta2 Plate Counter (PerkinElmer).

SF3B1^K700E [1] = target: T1, SF3B1^K700E (Homo sapiens, UniProt O75533+Q7RTV0, K700E); test: as above; set-up: expressed in transfected cells; host or cells: 293F cells (Life Technologies), transient transfection with pFLAG-CMV-2-SF3B1 K700E; settings: one nM 3H-probe; Flag-tag SF3B1^K700E from transfected 293F cells; read-out: IC50, competitive inhibition of binding of the 3H-probe molecule
Description: as §1
Target sequence in this assay (Q15393 whole entry, stated change not applied): as the sequence (Q15393 whole entry) above
Target sequence in this assay (Q9BWJ5 whole entry, further chain): as the sequence (Q9BWJ5 whole entry, further chain) above
Target sequence in this assay (Q7RTV0 whole entry): as the sequence (Q7RTV0 whole entry) above
Target sequence in this assay (O75533 whole entry K700E): as the sequence (O75533 whole entry) above, with K700E counted along it

SF3B1^K700E [2] = target: T1, SF3B1^K700E; test: In vitro splicing assay (IVS), Ad2 pre-mRNA substrate, nuclear extracts; format: biochemical; set-up: expressed in transfected cells; host or cells: nuclear extract of 293F cells transfected with pFLAG-CMV-2-SF3B1 K700E (the same assay was also run with Nalm-6 SF3B1 K700E nuclear extract); settings: nuclear extracts from Nalm-6 SF3B1^K700E cells or 293F cells expressing Flag-tag SF3B1^K700E
Description: E7107 is a small-molecule compound that inhibits splicing by targeting the U2 snRNP-associated complex SF3B (Kotake, Y. et al. “Splicing factor SF3b as a target of the antitumor natural product pladienolide.” Nat Chem Biol 3, 570-575, doi:10.1038/nchembio.2007.16 [2007]).
Nuclear extracts were prepared from 293F cells transfected with pFLAG-CMV-2-SF3B1 plasmids, or from isogenic Nalm-6 cells (SBH Sciences). The plasmids were generated by cloning the mxSF3B1 gene into the HindIII and KpnI sites of pFLAG-CMV2 (Sigma), and the mutations mxSF3B1^K700E, mxsF3B1^R1074H and mxSF3B1^K700E-R1074H were introduced using […]. Cell pellets were resuspended in hypotonic buffer (10 mM HEPES pH 7.9, 1.5 mM MgCl2, 10 mM KCl, 0.2 mM PMSF, and 0.5 mM DTT; for Nalm-6 cells, 40 mM KCl was used). The suspension was brought up to a total of five packed cell volumes (PCV). After centrifugation, the supernatant was discarded, and the cells were brought up to 3 PCV with hypotonic buffer, and incubated on ice for 10 minutes. Cells were lysed using a dounce homogenizer and then centrifuged. […] Protein concentration was determined using NanoDrop 8000 UV-Vis spectrophotometer (Thermo Scientific). […]

What does the source list for `CC[C@H](O)[C@@H](C)[C@H]1O[C@@H]1C[C@@](C)(O)/C=C/C=C(\C)[C@H]1OC(=O)C[C@H](O)CC[C@@](C)(O)[C@@H](OC(=O)N2CCN(C3CCCCCC3)CC2)/C=C/[C@@H]1C` [Compound E7107]?
IC50 (SF3B1^WT): 13 nM; IC50 (SF3B1^K700E [1]): 11 nM; inhibition of splicing of Ad2 pre-mRNA in nuclear extracts (SF3B1^K700E [2]): able to inhibit splicing
